Patent publication US20030092739A1, “Heterocyclic compounds” (priority 2001, published 2003)
Read-outs that look alike come from different tables or passages of the source.

Tested on: aphids
Test: Biological Test On Aphid (spray on cabbage leaf in Petri dish)
Type: in vivo
Conditions: for Number of dead aphids 1st: 1st replicate; for Number of dead aphids 1st / Number of dead aphids 2nd / Number of dead aphids 3rd / Number of dead aphids 4th: 20 aphids on cabbage leaf, 9.6% w/w pesticide reagent diluted 1000 times with water, sprayed, examined 24 hours later; for Number of dead aphids 2nd: 2nd replicate; for Number of dead aphids 3rd: 3rd replicate; for Number of dead aphids 4th: 4th replicate; for Number of dead aphids Average: average of four replicates; for pest or weed control at 96 µg/mL: read-out: Kill ratio
Method: The compound obtained from Example 1 was mixed with a solvent to form a 9.6% w/w pesticide reagent. An 8 cm×8 cm piece of clean cabbage leaf was placed on a lump of wet cotton in a Petri dish, and then 20 aphids were put on the cabbage leaf in the Petri dish. The thus formed pesticide reagent was diluted 1000 times with water to form a dilution that was then sprayed onto the cabbage leaf in the Petri dish with a predetermined amount. The number of dead aphids was examined 24 hours later, and the kill ratio was calculated. The test was carried out through four replicates.
Example 9 was repeated, except that the compound employed in Example 9 was replaced by the compound obtained from a respective one of the Examples 2 to 8.
Example 9 was repeated, except that the compound employed in Example 9 was replaced by imidachloprid, a heterocyclic compound of the formula disclosed in U.S. Pat. No. 4,742,060 that can be useful as pesticides.

[1] = 20 aphids, 9.6% w/w reagent diluted 1000 times, 24 hours
[2] = calculated from number of dead aphids, 20 aphids, 9.6% w/w reagent diluted 1000 times, 24 hours, four replicates

O=[N+]([O-])/N=C1\NCCN1Cc1ccc(Cl)nc1 [Comparative Example 1, imidachloprid, reference compound]
Number of dead aphids 1st: 17 | Number of dead aphids 2nd: 17 | Number of dead aphids 3rd: 18 | Number of dead aphids 4th: 17 | Number of dead aphids Average [1]: 17.25 | Kill ratio [2]: 85.90

N#CNCc1ccc(Cl)nc1 [Example 9, 6-chloro-pyridin-3-ylmethyl-cyanamide]
Number of dead aphids 1st: 19 | Number of dead aphids 2nd: 19 | Number of dead aphids 3rd: 20 | Number of dead aphids 4th: 20 | pest or weed control at 96 µg/mL (24 h): 96.2% | Number of dead aphids Average [1]: 19.25

CS/C(C)=N/OCc1ccc(Cl)nc1 [Example 10, N-(6-chloro-pyridin-3-ylmethoxy)-thioacetimidic Acid Methyl Ester]
Number of dead aphids 1st: 18 | Number of dead aphids 2nd: 17 | Number of dead aphids 3rd: 18 | Number of dead aphids 4th: 17 | Number of dead aphids Average [1]: 17.5 | pest or weed control at 96 µg/mL [2]: 87.2%

CC(C)Oc1ccccc1OCc1ccc(Cl)nc1 [Example 11, 2-chloro-5-(2-isopropoxy-phenoxymethyl)-pyridine]
Number of dead aphids 1st: 16 | Number of dead aphids 2nd: 19 | Number of dead aphids 3rd: 18 | Number of dead aphids 4th: 18 | Number of dead aphids Average [1]: 17.75 | pest or weed control at 96 µg/mL [2]: 88.5%

CSc1c(C)cc(OCc2ccc(Cl)nc2)cc1C [Example 12, 2-chloro-5-(3,5-dimethyl-4-methylsulfanyl-phenoxymethyl)-pyridine]
Number of dead aphids 1st: 20 | Number of dead aphids 2nd: 19 | Number of dead aphids 3rd: 19 | Number of dead aphids 4th: 19 | Number of dead aphids Average [1]: 19.25 | pest or weed control at 96 µg/mL [2]: 96.2%

Clc1ccc(COc2cccc3ccccc23)cn1 [Example 13, 2-chloro-5-(naphthalen-1-yloxymethyl)-pyridine]
Number of dead aphids 1st: 18 | Number of dead aphids 2nd: 17 | Number of dead aphids 3rd: 16 | Number of dead aphids 4th: 17 | Number of dead aphids Average [1]: 17 | pest or weed control at 96 µg/mL [2]: 84.6%

CC1(C)Cc2cccc(OCc3ccc(Cl)nc3)c2O1 [Example 14, 2-chloro-5-(2,2-dimethyl-2,3-dihydro-benzofuran-7-yloxymethyl)-pyridine]
Number of dead aphids 1st: 17 | Number of dead aphids 2nd: 16 | Number of dead aphids 3rd: 18 | Number of dead aphids 4th: 16 | Number of dead aphids Average [1]: 16.75 | pest or weed control at 96 µg/mL [2]: 83.3%

CNC(=O)Nc1nc2ccccc2n1Cc1ccc(Cl)nc1 [Example 15, 1-[1-(6-chloro-pyridin-3-ylmethyl)-1H-benzoimidazol-2-yl]-3-mehtyl-urea]
Number of dead aphids 1st: 17 | Number of dead aphids 2nd: 17 | Number of dead aphids 3rd: 16 | Number of dead aphids 4th: 16 | pest or weed control at 96 µg/mL (24 h): 82% | Number of dead aphids Average [1]: 16.5

CNC(=O)Nc1nc2ccccc2n1Cc1csc(Cl)n1 [Example 16, 1-[1-(2-chloro-thiazol-4-ylmethyl)-1H-benzoimidazol-2-yl]-3-methyl-urea]
Number of dead aphids 1st: 19 | Number of dead aphids 2nd: 16 | Number of dead aphids 3rd: 16 | Number of dead aphids 4th: 16 | Number of dead aphids Average [1]: 16.75 | pest or weed control at 96 µg/mL [2]: 83.3%
